For experiment [1], the target named is T1, 5-HT7 receptor (Homo sapiens, UniProt P34969).
T1 construct: expressed in transfected cells
The experiment is described as follows: 5-HT7 receptor affinity: [3H]5-HT radioligand binding assay. The conditions noted are these: [3H]5-HT competition, membranes of AV-12 cells. The protocol:
Membranes for affinity and antagonist activity assays are prepared essentially as follows. AV-12 cells, stably expressing the 5-HT7 receptor, are grown as a monolayer in 5×T-150 flasks in DMEM/F12 (3:1) 5% FBS, 20 mM HEPES, […] geneticin, 50 mg/mL tobramycin. After growing to 90% confluence the media is removed and replaced with Hybritech media (a low calcium version of DMEM/F12 media having 11 mg/L calcium) containing 2% horse serum, […] dextran sulfate, 1 mg/mL nucellin, 1 mg/mL human transferrin (partially iron saturated), 50 mg/mL tobramycin, 20 mM HEPES, […] geneticin, 0.04% pluronic F68. The cells are grown overnight to condition the media. The next morning the conditioned media (−150 mL total) is removed and set aside in a sterile container. The cells are trypsinized and collected in the conditioned media. […]
To prepare membranes, the above pellets are resuspended in ice-cold Tris buffer (20 mM Tris HCl, pH 7.4 at 23° C., 5 mM EDTA) and homogenized with a Wheaton tissue grinder. […] Protein concentrations are determined by the method of Bradford. […]
(§1) [^3H] […] The reactions are incubated at room temperature for 3 hr. and then counted in a Trilux Microbeta™ scintillation counter to detect receptor-bound radioligand. Binding data is analyzed by computer-assisted 4 parameter fit analysis (ID Business Solutions Ltd, Guildford, Surrey, UK). […]

The target in experiment [2] is T2, 5-HT2A (Homo sapiens, UniProt P28223).
T2 construct: expressed in transfected cells
T2 sequence (P28223 whole entry, species assumed): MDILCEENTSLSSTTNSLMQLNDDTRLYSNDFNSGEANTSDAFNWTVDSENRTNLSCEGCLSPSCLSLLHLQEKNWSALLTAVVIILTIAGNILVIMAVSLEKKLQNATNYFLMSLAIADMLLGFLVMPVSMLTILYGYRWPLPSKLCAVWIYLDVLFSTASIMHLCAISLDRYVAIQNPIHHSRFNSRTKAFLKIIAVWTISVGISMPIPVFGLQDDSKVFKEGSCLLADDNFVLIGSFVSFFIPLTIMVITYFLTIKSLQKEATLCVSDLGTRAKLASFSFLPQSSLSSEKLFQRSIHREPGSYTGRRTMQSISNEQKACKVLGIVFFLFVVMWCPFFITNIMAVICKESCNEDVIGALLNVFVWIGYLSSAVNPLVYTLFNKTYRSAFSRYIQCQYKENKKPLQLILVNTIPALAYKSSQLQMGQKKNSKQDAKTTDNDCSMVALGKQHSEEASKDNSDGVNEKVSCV
The experiment is described as follows: Radioligand binding assay, 5-HT2A subtype. The protocol: as §1
(§2) Affinity for other serotonin receptor subtypes as well as for alpha 1 & 2 adrenergic receptors can readily be determined by modification of the above described radioligand receptor binding assay using membranes derived from cells stably expressing the desired receptor subtype including the 5-HT1A, 5-HT1B, and 5-HT1D subtypes, as well as the 5-HT2A, 5-HT2B, 5-HT2C, 5-HT4, 5-HT5, and 5-HT6 receptor subtypes. […]

Experiment [3] deals with T3, 5-HT2C (Homo sapiens, UniProt P28335).
T3 construct: expressed in transfected cells
T3 sequence (P28335 33-458): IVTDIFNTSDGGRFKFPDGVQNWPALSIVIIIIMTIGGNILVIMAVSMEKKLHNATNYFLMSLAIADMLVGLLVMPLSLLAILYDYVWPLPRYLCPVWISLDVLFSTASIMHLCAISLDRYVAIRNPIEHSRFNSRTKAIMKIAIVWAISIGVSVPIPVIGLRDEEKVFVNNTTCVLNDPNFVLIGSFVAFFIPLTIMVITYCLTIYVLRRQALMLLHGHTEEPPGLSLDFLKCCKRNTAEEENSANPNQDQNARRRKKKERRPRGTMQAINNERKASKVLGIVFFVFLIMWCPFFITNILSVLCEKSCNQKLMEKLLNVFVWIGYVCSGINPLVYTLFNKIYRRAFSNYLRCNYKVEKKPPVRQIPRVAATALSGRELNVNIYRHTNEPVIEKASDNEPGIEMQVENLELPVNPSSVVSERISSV
As to the kind of experiment: Radioligand binding assay, 5-HT2C subtype. The protocol:
as §1, §2

The target in experiment [4] is alpha 1 adrenergic. As to the kind of experiment: Radioligand binding assay, alpha 1 adrenergic. The protocol: as §1, §2

Values joined by “and” are separate entries in the source; they are usually repeats but may differ in a detail not shown here. Identical values can stand only once.

T1 sequence (P34969 whole entry): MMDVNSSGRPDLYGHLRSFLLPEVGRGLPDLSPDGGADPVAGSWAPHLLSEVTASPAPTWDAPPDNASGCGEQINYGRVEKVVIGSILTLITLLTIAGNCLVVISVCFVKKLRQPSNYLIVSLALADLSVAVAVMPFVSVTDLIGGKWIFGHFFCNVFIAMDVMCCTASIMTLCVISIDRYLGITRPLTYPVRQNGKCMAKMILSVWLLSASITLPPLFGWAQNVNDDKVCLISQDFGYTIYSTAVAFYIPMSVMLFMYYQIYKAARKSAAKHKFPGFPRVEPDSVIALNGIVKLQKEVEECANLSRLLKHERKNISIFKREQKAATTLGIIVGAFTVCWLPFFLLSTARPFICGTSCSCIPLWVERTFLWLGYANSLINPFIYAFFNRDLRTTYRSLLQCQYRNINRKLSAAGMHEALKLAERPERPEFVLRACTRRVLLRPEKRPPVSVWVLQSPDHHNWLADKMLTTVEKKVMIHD

A word on the Ki: it is the dissociation constant of the complex between target and ligand, obtained from inhibition or displacement. A low value points to tighter binding. On to `COCc1ccc(-c2nccnc2N2CCN(CCN(C)S(=O)(=O)c3cnn(C)c3)CC2)cc1.Cl` [Example 25, 1-Methyl-1H-pyrazole-4-sulfonic acid {2-[3′-(4-methoxymethyl-phenyl)-2,3,5,6-tetrahydro-[1,2′]bipyrazinyl-4-yl]-ethyl}-methyl-amide hydrochloride], for which the Ki in experiment [1] is ~19.4 nM and 19.4 nM; in experiment [2] it was > 7470 nM; in experiment [3], > 8360 nM; in experiment [4] it was 2330 nM.

The record behind these values is patent US8048884B2, “Substituted piperazinyl pyrazines and pyridines as 5-HT7 receptor antagonists” (Eli Lilly and Company, priority 2007, dated 2011).
